Test results: US8497385B2, “Bryostatin analogues, synthetic methods and uses” (The Board of Trustees of the Leland Stanford Junior …, priority 2007, dated 2013)

Experiments:
HCT-15 = test: NCI growth inhibition, HCT-15 (Colon); format: cell-based, human
KM12 = test: NCI growth inhibition, KM12 (Colon); format: cell-based, human
UACC-257 = test: NCI growth inhibition, UACC-257 (Melanoma); format: cell-based, human
RPMI-8226 = test: NCI growth inhibition, RPMI-8226 (Leukemia); format: cell-based, human
EKVX = test: NCI growth inhibition, EKVX (NSC Lung); format: cell-based, human
TK-10 = test: NCI growth inhibition, TK-10 (Renal); format: cell-based, human
MOLT-4 = test: NCI growth inhibition, MOLT-4 (Leukemia); format: cell-based, human
K-562 = test: NCI growth inhibition, K-562 (Leukemia); format: cell-based, human
NCI-H460 = test: NCI growth inhibition, NCI-H460 (NSC Lung); format: cell-based, human
SF-539 = test: NCI growth inhibition, SF-539 (CNS); format: cell-based, human
HCT-116 = test: NCI growth inhibition, HCT-116 (Colon); format: cell-based, human
SNB-19 = test: NCI growth inhibition, SNB-19 (CNS); format: cell-based, human
HOP-62 = test: NCI growth inhibition, HOP-62 (NSC Lung); format: cell-based, human
SNB-75 = test: NCI growth inhibition, SNB-75 (CNS); format: cell-based, human
[1] = test system: NCl human cancer cell-lines; test: In vitro inhibition of growth in NCI human cancer cell lines, all cell groups; format: cell-based; conditions: all cell groups tested
HS 578T = test: NCI growth inhibition, HS 578T (Breast); format: cell-based, human
HT29 = test: NCI growth inhibition, HT29 (Colon); format: cell-based, human
ACHN = test: NCI growth inhibition, ACHN (Renal); format: cell-based, human
HCC-2998 = test: NCI growth inhibition, HCC-2998 (Colon); format: cell-based, human
786-0 = test: NCI growth inhibition, 786-0 (Renal); format: cell-based, human
NCI-H322M = test: NCI growth inhibition, NCI-H322M (NSC Lung); format: cell-based, human
SK-MEL-5 = test: NCI growth inhibition, SK-MEL-5 (Melanoma); format: cell-based, human
OVCAR-5 = test: NCI growth inhibition, OVCAR-5 (Ovarian); format: cell-based, human
MI4 = test: NCI growth inhibition, MI4 (Melanoma); format: cell-based, human

For `CCCCCCCC(=O)OC1C(=CC(=O)OC)CC2CC(CO)OC(=O)CC(O)CC3CCCC(CC4CCOC(C=CC(C)(C)C1(O)O2)O4)O3` (centres unmarked) [Formula IIa (702.1)], which GI50 (HCT-15) is on record?
The GI50 was −4.76 log of molar concentration.

And the “Difference of GI50 (log), Desmethyl vs Bryo-1” value (“Difference of GI50 (log)” for short) (KM12; KM12)?
The value was −0.14.

And the GI50 (KM12; KM12, Colon)?
The GI50 was −5.34 log of molar concentration.

What about the “Difference of GI50 (log)” value (UACC-257; UACC-257) of the same compound?
The value was −0.03.

And the GI50 (UACC-257; UACC-257, Melanoma)?
Its GI50 is −5.13 log of molar concentration.

And the “Difference of GI50 (log)” value (RPMI-8226; RPMI-8226)?
Its value is −0.82.

And the GI50 (RPMI-8226; RPMI-8226, Leukemia)?
Its GI50 is −5.82 log of molar concentration.

What about the “Difference of GI50 (log)” value (EKVX) of the same compound?
The value was −0.28.

What about the GI50 (EKVX; NSC Lung) of the same compound?
The GI50 was −5.58 log of molar concentration.

What about the “Difference of GI50 (log)” value (TK-10; TK-10) of the same compound?
The value was −2.03.

And the GI50 (TK-10; TK-10, Renal)?
Its GI50 is −7.03 log of molar concentration.

And the “more active than bryostatin-1” value (TK-10; TK-10, Renal)?
The value was “more than 2 orders of magnitude”.

And the “Difference of GI50 (log)” value (MOLT-4; MOLT-4)?
Its value is −2.50.

What about the GI50 (MOLT-4; MOLT-4, Leukemia) of the same compound?
Its GI50 is <−8.0 log of molar concentration.

What about the “more active than bryostatin-1” value (MOLT-4; MOLT-4, Leukemia) of the same compound?
The value was “more than 2 orders of magnitude”.

And the “Difference of GI50 (log)” value (K-562; K-562)?
The value was −2.10.

And the GI50 (K-562; K-562, Leukemia)?
Its GI50 is −7.5 log of molar concentration.

And the “more active than bryostatin-1” value (K-562; K-562, Leukemia)?
Its value is “more than 2 orders of magnitude”.

What about the “Difference of GI50 (log)” value (NCI-H460; NCI-H460) of the same compound?
Its value is −2.40.

And the GI50 (NCI-H460; NCI-H460, NSC Lung)?
The GI50 was <−8 log of molar concentration.

And the “more active than bryostatin-1” value (NCI-H460; NCI-H460, NSC Lung)?
The value was “more than 2 orders of magnitude”.

What about the “Difference of GI50 (log)” value (SF-539; SF-539) of the same compound?
Its value is −0.77.

What about the GI50 (SF-539; SF-539, CNS) of the same compound?
Its GI50 is −5.77 log of molar concentration.

And the “Difference of GI50 (log)” value (HCT-116; HCT-116)?
The value was −0.02.

And the GI50 (HCT-116; HCT-116, Colon)?
Its GI50 is −5.32 log of molar concentration.

What about the “Difference of GI50 (log)” value (SNB-19; SNB-19) of the same compound?
Its value is −0.20.

What about the GI50 (SNB-19; SNB-19, CNS) of the same compound?
The GI50 was −5.2 log of molar concentration.

What about the GI50 (HOP-62) of the same compound?
Its GI50 is −4.79 log of molar concentration.

And the “Difference of GI50 (log)” value (SNB-75; SNB-75)?
Its value is 0.53.

What about the GI50 (SNB-75; SNB-75, CNS) of the same compound?
Its GI50 is −4.97 log of molar concentration.

And the “potency relative to bryostatin-1, on average” value [1]?
Its value is “at least as potent, on average, as bryostatin-1”.

What about the “Difference of GI50 (log)” value (HS 578T) of the same compound?
The value was 0.02.

What about the GI50 (HS 578T; Breast) of the same compound?
The GI50 was −5.18 log of molar concentration.

And the “Difference of GI50 (log)” value (HT29; HT29)?
Its value is −0.25.

And the GI50 (HT29; HT29, Colon)?
The GI50 was −5.55 log of molar concentration.

And the “Difference of GI50 (log)” value (ACHN)?
The value was −0.44.

What about the GI50 (ACHN; Renal) of the same compound?
Its GI50 is −5.94 log of molar concentration.

What about the “Difference of GI50 (log)” value (HCC-2998; HCC-2998) of the same compound?
The value was −2.24.

What about the GI50 (HCC-2998; HCC-2998, Colon) of the same compound?
Its GI50 is −7.54 log of molar concentration.

What about the “more active than bryostatin-1” value (HCC-2998; HCC-2998, Colon) of the same compound?
The value was “more than 2 orders of magnitude”.

What about the “Difference of GI50 (log)” value (786-0; 786-0) of the same compound?
The value was −0.26.

And the GI50 (786-0; 786-0, Renal)?
The GI50 was −5.46 log of molar concentration.

What about the “Difference of GI50 (log)” value (NCI-H322M) of the same compound?
Its value is 1.62.

What about the GI50 (NCI-H322M; NSC Lung) of the same compound?
Its GI50 is −4.38 log of molar concentration.

What about the “Difference of GI50 (log)” value (SK-MEL-5; SK-MEL-5) of the same compound?
The value was −0.73.

And the GI50 (SK-MEL-5; SK-MEL-5, Melanoma)?
The GI50 was −6.43 log of molar concentration.

What about the “Difference of GI50 (log)” value (OVCAR-5; OVCAR-5) of the same compound?
The value was −0.28.

What about the GI50 (OVCAR-5; OVCAR-5, Ovarian) of the same compound?
The GI50 was −5.28 log of molar concentration.

What about the “Difference of GI50 (log)” value (MI4; MI4) of the same compound?
Its value is −0.26.

What about the GI50 (MI4; MI4, Melanoma) of the same compound?
Its GI50 is −5.26 log of molar concentration.
